Consider one compound from patent US9995731B2, “Construction of mitochondrial UQCRB mutant expressing cells and utilization of the cells for UQCRB assay system thereof” (INDUSTRY-ACADEMIC COOPERATION FOUNDATION, YONSEI UNIVERSITY, priority 2014, dated 2018).

Type in all cases: cell-based, human
One assay concerns UQCRB MT1 cells. Put plainly: Measurement of mROS levels with MitoSOX in UQCRB MT1 cells. As to conditions: terpestacin 20 μM for 1 h. From the text: (§1) FIG. 4A-4F Pro-angiogenic activity of UQCRB mutant stable cell lines and its regulation by UQCRB inhibitors. (4A) Pro-angiogenic activity of a UQCRB mutant through conditioned media (CM)-induced invasion of HUVECs. (4B) Effect of a UQCRB mutation on cell migration; black lines indicate the edge of the gap. (4C) Optical density levels of the colony formation assay by using UQCRB mutant stable cell lines or controls. (4D, 4E) Growth of the UQCRB mutant stable cell lines regulated by the UQCRB inhibitors terpestacin (T) and A1938 (A). Cells were treated with terpestacin (50 μM) or A1938 (10 μM) in a time-dependent manner. Cell growth was measured by the MTT colorimetric assay. (4F) Suppression of elevated mROS by terpestacin in UQCRB MT1 cells. mROS were measured using MitoSOX™. […]
mROS levels were assessed by the red fluorescence mitochondrial superoxide indicator MitoSOX™ (Invitrogen, Grand Island, N.Y.). […] Results of MitoSOX™ and Hoechst staining were analyzed under a confocal microscope (Zeiss LSM 710; Carl Zeiss Microlmaging, Thornwood, N.Y.), and the fluorescence intensity of MitoSOX™ was measured by ImageJ.
(§2) Since UQCRB is a molecular target of the natural compound terpestacin [6], we examined the effect of terpestacin on UQCRB mutant stable cell lines. To test whether terpestacin affects MT1 and MT2, cell growth was measured with or without terpestacin for 3 days. […]

Assay [1] concerns UQCRB mutant stable cell line MT2. The assay can be described thus: Cell proliferation assay (MTT colorimetric), UQCRB mutant stable cell line MT2. As to conditions: MT2 cells, terpestacin 50 μM, with or without terpestacin for 3 days.
Description: as §1, with “MitoSOX™. Terpestacin (20 μM) was applied to UQCRB MT1 cells for 1 h; scale bars indicate 20 μm.” for “MitoSOX™.”
(§3) Control and mutant stable cell lines were seeded onto 96-well plates and incubated for 24-72 h. Proliferation of the cells was measured using a 3-(4,5-dimethylthiazol-2-yl)-2,5-diphenyltetrazolium bromide (MTT; Sigma-Aldrich, Saint Louis, Mo.) colorimetric assay.
as §2

The subject of assay [2] is UQCRB mutant stable cell line MT1. Put plainly: Cell proliferation assay (MTT colorimetric), UQCRB mutant stable cell line MT1. As to conditions: MT1 cells, terpestacin 50 μM, with or without terpestacin for 3 days.
Description: as §1, with “MitoSOX™. Terpestacin (20 μM) was applied to UQCRB MT1 cells for 1 h; scale bars indicate 20 μm.” for “MitoSOX™.”
as §3, §2

The subject of the next assay is Control (HEK293) cells. The assay can be described thus: Cell proliferation assay (MTT colorimetric), control cells. As to conditions: terpestacin 50 μM, 3 days.
Description: as §1, with “MitoSOX™. Terpestacin (20 μM) was applied to UQCRB MT1 cells for 1 h; scale bars indicate 20 μm.” for “MitoSOX™.”
as §3, §2

Molecules are shown by their SMILES.

Take `C/C1=C\C[C@]2(C)C(=O)C(O)=C([C@H](C)CO)[C@H]2C/C=C(\C)[C@@H](O)CC/C(C)=C/CC1` [terpestacin]: the “effect on elevated mROS (MitoSOX fluorescence)” value in the assay on UQCRB MT1 cells is listed as “attenuated mROS induction in MT1 to a basal level”. Further, the “effect on proliferation (cell growth, MTT)” value is “remarkably inhibited proliferation” in assay [1], “remarkably inhibited proliferation” in assay [2] and “did not affect the proliferation” in the assay on Control (HEK293) cells.
